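These data come from cells grown in 96-well plates and exposed to compound for 48 hours at five concentrations. GI50: concentration for 50% inhibition of growth. At the TGI there is no net growth.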
Tests used:
Assay in all cases: DTP human tumour cell line panel, 48 h
M14 melanoma = test system: M14 melanoma
U251 CNS = test system: U251 CNS
HS 578T breast = test system: HS 578T breast
OVCAR-4 ovarian = test system: OVCAR-4 ovarian
MDA-MB-231 breast = test system: MDA-MB-231 breast
UACC-62 melanoma = test system: UACC-62 melanoma
UACC-257 melanoma = test system: UACC-257 melanoma
SK-MEL-5 melanoma = test system: SK-MEL-5 melanoma
NCI/ADR-RES ovarian = test system: NCI/ADR-RES ovarian
RPMI-8226 leukemia = test system: RPMI-8226 leukemia
ACHN renal = test system: ACHN renal
EKVX NSCLC = test system: EKVX NSCLC
CAKI-1 renal = test system: CAKI-1 renal
HOP-62 NSCLC = test system: HOP-62 NSCLC
K-562 leukemia = test system: K-562 leukemia
NCI-H522 lung = test system: NCI-H522 lung
CCRF-CEM leukemia = test system: CCRF-CEM leukemia
HCC-2998 colon = test system: HCC-2998 colon
SK-MEL-28 melanoma = test system: SK-MEL-28 melanoma
UO-31 renal = test system: UO-31 renal
SW-620 colon = test system: SW-620 colon
NCI-H460 lung = test system: NCI-H460 lung
SNB-19 CNS = test system: SNB-19 CNS
MDA-MB-435 = test system: MDA-MB-435
DU-145 prostate = test system: DU-145 prostate
RXF 393 renal = test system: RXF 393 renal
A498 renal = test system: A498 renal

For `c1ccc2c3ccn4cc5c(cc4c-3nc2c1)CCCC5`, the TGI (M14 melanoma) was 6.41 µM, the GI50 (U251 CNS) was 3.22 µM and the TGI (U251 CNS) was 13.6 µM. The GI50 (HS 578T breast) was 3.01 µM, the TGI (HS 578T breast) was 21.5 µM and the GI50 (OVCAR-4 ovarian) was 2.85 µM. It also gave a TGI (OVCAR-4 ovarian) of 11 µM, a GI50 (MDA-MB-231 breast) of 4.47 µM and a TGI (MDA-MB-231 breast) of 20.8 µM. For the same compound, the GI50 (UACC-62 melanoma) was 3.25 µM, the TGI (UACC-62 melanoma) was 14.4 µM and the GI50 (UACC-257 melanoma) was 5.42 µM. For the same compound, the TGI (UACC-257 melanoma) was 38.2 µM, the GI50 (SK-MEL-5 melanoma) was 2.42 µM and the TGI (SK-MEL-5 melanoma) was 10.3 µM. The GI50 (NCI/ADR-RES ovarian) was 55 µM, the TGI (NCI/ADR-RES ovarian) was > 100 µM and the GI50 (RPMI-8226 leukemia) was 5.11 µM. The TGI (RPMI-8226 leukemia) was > 100 µM, the GI50 (ACHN renal) was 4.75 µM and the TGI (ACHN renal) was 17.5 µM. It also gave a GI50 (EKVX NSCLC) of 3.88 µM, a TGI (EKVX NSCLC) of 19.5 µM and a GI50 (CAKI-1 renal) of 34.9 µM. For the same compound, the TGI (CAKI-1 renal) was > 100 µM, the GI50 (HOP-62 NSCLC) was 3.5 µM and the TGI (HOP-62 NSCLC) was 13.1 µM. For the same compound, the GI50 (K-562 leukemia) was 1.95 µM, the TGI (K-562 leukemia) was 12.6 µM and the TGI (NCI-H522 lung) was 5.75 µM. For the same compound, the GI50 (CCRF-CEM leukemia) was 3.52 µM, the TGI (CCRF-CEM leukemia) was > 100 µM and the GI50 (HCC-2998 colon) was 4.3 µM. For the same compound, the TGI (HCC-2998 colon) was 15 µM, the GI50 (SK-MEL-28 melanoma) was 2.38 µM and the TGI (SK-MEL-28 melanoma) was 11.7 µM. The GI50 (UO-31 renal) was 14.6 µM, the TGI (UO-31 renal) was 29.8 µM and the TGI (SW-620 colon) was 9.85 µM. The GI50 (NCI-H460 lung) was 1.69 µM, the TGI (NCI-H460 lung) was 3.85 µM and the GI50 (SNB-19 CNS) was 3.49 µM. For the same compound, the TGI (SNB-19 CNS) was 13.8 µM, the GI50 (MDA-MB-435) was 1.56 µM and the TGI (MDA-MB-435) was 4.19 µM. The GI50 (DU-145 prostate) was 2.31 µM, the TGI (DU-145 prostate) was 10.5 µM and the GI50 (RXF 393 renal) was 5.62 µM. The TGI (RXF 393 renal) was 27 µM, the GI50 (A498 renal) was 11.6 µM and the TGI (A498 renal) was 24.1 µM.
